Where two headings read alike, the source gives them in different places.
Key:
[1] = test system: streptozotocin-diabetic rats; assay: Blood glucose concentration of CMT-1-treated diabetic rats (Example I, FIG. 1); type: in vivo, Sprague-Dawley rat; conditions: oral gavage, 1-10 mg/day, 21 days
From the text: Each value represents the mean ± S.E.M. for 4 rats per experimental group.
(§1) Twenty-four adult male Sprague-Dawley rats were weighed (body weight between 350-375 g) and injected through the tail vein with either 0.9% saline (nondiabetic controls, NDC) or with the same solution containing streptozotocin ([…] body weight) to induce diabetes. The diabetic rats were distributed into five experimental groups (n=4 rats per group) and daily administered by oral gavage either 0, 1, 2, 5 or 10 mg of CMT-1 (4-dedimethylaminotetracycline, a chemically-modified non-antimicrobial tetracycline) suspended in 2% carboxymethylcellulose (CMC) for 21 days. The non-diabetic control rats were gavaged with the carrier alone (2% CMC). Urine glucose levels were measured weekly with Tes-Tape (Eli Lily, Inc., Indianapolis, Ind.).
On the 21st day, the rats were weighed and anesthetized with halothane (Halocarbon Laboratories) before blood samples were collected for serum glucose (Sigma glucose oxidase kit, St. Louis, Mo.) and CMT-1 determinations. […]
(§2) The data were subject to statistical analysis. The standard error of the mean (S.E.M) was calculated from the standard deviation. The statistical significance between the groups were determined by analysis of variance while the significance of differences between groups was calculated by Tukey's test.

[2] = type: in vivo, Sprague-Dawley rat; conditions: for Serum CMT-1 Conc.: 21 days, mean of 4 rats ± S.E.M.; for serum concentration for individual rats: individual rats (data not shown), 30240 min
Method: as §1
On the 21st day, the rats were weighed and anesthetized with halothane (Halocarbon Laboratories) before blood samples were collected for serum glucose (Sigma glucose oxidase kit, St. Louis, Mo.) and CMT-1 determinations. The rats were then killed by exsanguination and the skin from the entire torso was dissected, weighed, and minced as described by Schneir et al., Diabetes 31:426 (1982).
The extraction and HPLC determination of the concentration of CMT-1 in rat serum was carried out as described by Yu et al., Biochem. Med. & Metabolic Biol. 47:10-20 (1992).
Serum CMT-1 concentration was assayed using the HPLC technique described by Yu et al., BioChem. Med. & Metabolic Biol. 47: 10-20 (1992). […].

[3] = test system: skin collagen; assay: Solubility of skin collagen in neutral salt and dilute acid, CMT-1 (Example I, FIGS. 2 and 3); type: in vivo, Sprague-Dawley rat; conditions: for increase of collagen solubility in neutral salt solutions / increase of collagen solubility in dilute acid solutions: vs untreated diabetics, 4° C.
Method: as §1
Skin samples were examined for collagen solubility using the techniques described previously (Golub et al., J. Periodont. Res. 12:402 (1977), Golub et al., Biochim. Biophys. Acta 534:73 (1978)) with some modifications. Except where indicated, all steps were carried out at 4° C.
Briefly, for the preparation of neutral salt-soluble collagen, minced rat skin was extracted with Tris-HCl buffer (pH 7.4) for 2 days followed by centrifugation at 11,000×g for 20 min. The pellet was subjected to an additional extraction for 18 hr and centrifuged as described above. Both supernatants were then combined and dialyzed exhaustively against 3% acetic acid for 2 days.
For the preparation of acid-soluble collagen, the pellet was further extracted with 3% acetic acid as described for the neutral salt extraction. The neutral salt and dilute acid extracts were dried with a rotatory evaporator at 60° C. under vacuum.
Following acid hydrolysis, the dried samples from the two extractions were used for neutral salt- and acid-soluble collagen determinations, while the pellet was used to determine the amount of insoluble collagen.
The amount of collagen in the three different skin fractions was also estimated. In particular, aliquots of the hydrolysates were repeatedly evaporated and reconstituted with distilled water to remove the hydrochloric acid. After removal of hydrochloric acid, the aliquots Were colorimetrically analyzed for hydroxyproline, an amino acid "marker" of collagen.
as §2

[4] = test system: streptozotocin-diabetic rats; assay: Proteinuria: urine protein excretion in diabetic rats (Example III, FIG. 4); type: in vivo, rat; conditions: recent experiments, data not shown; Golub et al. 1992 cited
Method: Example III was carried out to determine the effect of tetracycline therapy on proteinuria, a parameter of renal damage, in diabetic rats.
(§3) Streptozotocin-diabetic rats were treated by the daily oral administration of 20 mg minocycline/rat/day over a 4-week period. At the end of the protocol, 24-hour urines were collected to measure protein excretion.

[5] = test system: streptozotocin-diabetic rats; assay: Other signs of diabetes (hyperglycemia, glucosuria, polyuria) in diabetic rats (Example III); type: in vivo, rat
Method: as §3

[6] = test system: serum protein; assay: Glycosylated serum proteins in diabetic rats (Example IV, FIG. 5); type: in vivo, Sprague-Dawley rat; conditions: 5 mg daily oral gavage, 21 days; effect p<0.05
From the text: (Control vs. Diabetic p<0.01, Diabetic vs. Diabetic treated with Doxycycline p<0.05, Diabetic vs. Diabetic treated with CMT-1 (4-dedimethyiaminotetracycline) p<0.05).
(§4) Sixteen adult male sprague-Dawley rats, each weighing approximately 350 grams, were divided into four groups 0f four animals per group.

[7] = test system: skin collagen; assay: Glycosylation of skin collagen in diabetic rats, anthrone method (Example IV, FIG. 6); type: in vivo, Sprague-Dawley rat; conditions: 5 mg daily oral gavage, 21 days; effect p<0.05
Method: as §4
In addition, the entire skin was dissected from each rat. Samples containing 100mg of each skin were suspended in a Tris-HCl buffer containing 5mM CaCl2 and chromatographically-purified bacterial collagenase and incubated at 37° C. for 4 hours. Following incubation all samples were centrifugated at 35,000×G and the supernatants containing the skin collagen fragments were collected. The skin digest supernatants were analyzed for (1) carbohydrate-attached-to-collagen by the anthrone method, as described by Halhoul and Kleinberg ([…]) Anal. Biochem. 50: 337-343 and (2) total protein using the BioRad Assay, BioRad Chemical Division, Richmond, Calif.

[8] = test system: skin collagen; assay: Glycosylation of diabetic rat skin collagen (Example V, Table IV); type: in vivo, Sprague-Dawley rat; conditions: 5 mg daily oral gavage, 21 days
Method: All animals were weighed weekly.
The subcutaneous muscle layer was removed leaving essentially the dermis. The dermis (skin connective tissue) samples were minced, then homogenized in phosphate buffered saline (4° C.). Following centrifugation (at 9000 rpm, 4° C., 30 min.) of the homogenates, the supernatants were discarded. The pellets were repeatedly washed, then resuspended and extracted at 4° C. overnight in chloroform/methanol to remove lipids. The de-lipidized tissue samples were then washed in 100% methanol, then in 50% methanol. Following the methanol washes, the samples were washed with HEPES buffer (pH 7.4). The skin connective tissue samples (100 mg of each sample) were incubated at 37° C. (24 hours) with chromatographically-purified bacterial collagenase. After 24 hours the reaction mixture was centrifuged at 7000 rpm, room temperature for 30 minutes. Following centrifugation, the supernatants containing the digested collagen were collected. Aliquots of the supernatants were analyzed for glycosylated collagen using a modification of the Isolab Glyco-PROBE™ GSP assay kit. The assay is designed to measure glucose bound to protein which was then converted by Amadori rearrangement to fructosamine. For purposes of the present invention, the sample total protein was increased to compensate for low levels of glycosylated collagen compared to glycosylated serum proteins.

## CC1(O)c2cccc(O)c2C(=O)C2=C(O)C3(O)C(=O)C(C(N)=O)=C(O)CC3CC21 (stereo not drawn) [CMT-1, 4-dedimethylaminotetracycline]
[1]
  severity of hyperglycemia (blood glucose concentration): did not significantly alter the severity of hyperglycemia
[2]; 1 mg CMT/day oral
  Serum CMT-1 Conc.: 0.75 ± 0.04 µg/mL
[2]; 1 mg oral dose
  serum concentration for individual rats: 600 ng/mL
[2]; 2 mg CMT/day oral
  Serum CMT-1 Conc.: 1.75 ± 0.05 µg/mL
[2]; 5 mg CMT/day oral
  Serum CMT-1 Conc.: 3.90 ± 0.16 µg/mL
[2]; 10 mg CMT/day oral
  Serum CMT-1 Conc.: 5.80 ± 0.25 µg/mL
[2]; 10 mg oral dose
  serum concentration for individual rats: 6500 ng/mL
[3]; 1 mg CMT/day oral
  increase of collagen solubility in neutral salt solutions: 10%
[3]; 1 mg/day oral
  increase of collagen solubility in dilute acid solutions: 18%
[3]; 10 mg/day oral
  increase of collagen solubility in dilute acid solutions: 174%
  increase of collagen solubility in neutral salt solutions: 91%
[3]; diabetic rats, oral
  quality of collagen in the skin (inhibition of excess crosslinking): normalized
[4]
  proteinuria in diabetic rats: a reduction in proteinuria
[5]
  other signs of diabetes including hyperglycemia, glucosuria and polyuria: Neither treatment with minocycline nor CMT-1 reduced the other signs of diabetes
[6]
  fructosamine attached to serum protein (glycosylated serum protein): returned both of these parameters of abnormal glycosylation to essentially normal levels
[7]
  glycosylation of skin collagen: returned both of these parameters of abnormal glycosylation to essentially normal levels
[8]; NDC 0.027, untreated diabetic 0.377
  mM Fructosamine/mg protein (Mean ± SE): 0.123 ± 0.011 mM Fructosamine/mg protein
[8]; vs untreated diabetic control
  Reduction of glycosylation in treated diabetics (%): 67.4%

— patent publication US5532227A, “Tetracyclines including non-antimicrobial chemically-modified tetracyclines inhibit excessive glycosylation of different types of collagen and other proteins during diabetes” (The Research Foundation of State University of New York, priority 1994, dated 1996)
